Source: the NIST ThermoML archive (doi:10.1021/acs.jced.6b00169)
Several values for one entry are separate records, joined by “and”; a condition that tells them apart may be missing. Identical values can stand only once.

Details: for vapor or sublimation pressure: Liquid, Closed cell (Static) method; for mass density: Fluid (supercritical or subcritical phases), isochoric method

FC(F)(F)/C=C\C(F)(F)F [(Z)-1,1,1,4,4,4-hexafluorobut-2-ene]
Details	vapor or sublimation pressure
323.47 K	182.2 kPa
323.49 K	177.9 kPa
323.5 K	180.6 kPa [middle of 4 runs]
323.51 K	181.2 kPa [middle of 7 runs]
323.52 K	180.2 kPa [middle of 5 runs]
323.53 K	182.1 kPa and 186.3 kPa
333.44 K	247.7 kPa
333.45 K	248.1 kPa
333.46 K	243.8 kPa
333.47 K	247.2 kPa and 243.5 kPa
333.48 K	246.1 kPa and 248.3 kPa
333.49 K	247.6 kPa [middle of 9 runs]
333.5 K	254.8 kPa
343.45 K	331.8 kPa
343.46 K	331.6 kPa
343.48 K	331.2 kPa [middle of 6 runs]
343.49 K	330.6 kPa [middle of 7 runs]
343.5 K	343.2 kPa and 336.4 kPa and 331.7 kPa
353.46 K	435.3 kPa
353.47 K	435.3 kPa
353.48 K	435.2 kPa and 429.9 kPa and 430.2 kPa
353.49 K	435.2 kPa [middle of 5 runs]
353.5 K	434.6 kPa [middle of 4 runs]
363.46 K	562 kPa and 561.7 kPa
363.47 K	555.8 kPa and 556.4 kPa
363.48 K	562.1 kPa [middle of 4 runs]
363.49 K	562.2 kPa [middle of 5 runs]
363.5 K	567.8 kPa and 559.4 kPa
373.45 K	714 kPa
373.47 K	714.4 kPa [middle of 4 runs]
373.48 K	731.7 kPa and 715.2 kPa
373.49 K	713.5 kPa [middle of 5 runs]
373.5 K	716.9 kPa [middle of 4 runs]
383.45 K	895.1 kPa
383.46 K	888.7 kPa
383.47 K	896.6 kPa and 889.9 kPa and 895.9 kPa
383.48 K	896.5 kPa and 895.3 kPa
383.49 K	893.4 kPa [middle of 6 runs]
383.5 K	921.5 kPa and 896.4 kPa
393.47 K	1103.1 kPa and 1109.7 kPa
393.48 K	1112.1 kPa and 1110.3 kPa
393.49 K	1109.6 kPa [middle of 4 runs]
393.5 K	1111.5 kPa [middle of 4 runs]
393.51 K	1113.3 kPa and 1107 kPa
403.41 K	1365.2 kPa
403.47 K	1361.3 kPa
403.48 K	1355 kPa
403.49 K	1364.2 kPa [middle of 4 runs]
403.5 K	1358.5 kPa and 1362.4 kPa
403.51 K	1363.4 kPa and 1358.6 kPa and 1364.3 kPa
413.47 K	1648.2 kPa and 1655.1 kPa
413.49 K	1657.8 kPa [middle of 4 runs]
413.5 K	1651.9 kPa
413.51 K	1658.4 kPa [middle of 4 runs]
423.47 K	1995.7 kPa
423.48 K	2000.2 kPa and 1989.3 kPa
423.49 K	2000.4 kPa and 1992.9 kPa and 1997.8 kPa
423.5 K	1990 kPa and 1999.2 kPa
423.51 K	1999.9 kPa and 1993.1 kPa and 1999.7 kPa
433.46 K	2391.8 kPa
433.47 K	2384.5 kPa
433.49 K	2396.8 kPa and 2389.4 kPa and 2393.9 kPa
433.5 K	2385.2 kPa and 2388.6 kPa
433.51 K	2396.2 kPa
433.52 K	2395.9 kPa
443.45 K	2854.5 kPa
443.47 K	2837.9 kPa
443.5 K	2847.4 kPa and 2860.1 kPa
443.51 K	2859.8 kPa and 2850.8 kPa

Details	mass density [kg/m3]
333.47 K, 5013.6 kPa	1294.9
333.49 K, 4294.8 kPa	1291.4
343.5 K, 9927.3 kPa	1290.8
353.5 K, 1179.2 kPa	1214.2
363.49 K, 3108.6 kPa	1196.7
363.5 K, 5627.6 kPa	1213.6
373.49 K, 7319.3 kPa	1196.2
383.48 K, 2373.8 kPa	1121.1
393.48 K, 5697.9 kPa	1120.5
393.51 K, 1151.8 kPa	1038.9
403.48 K, 1382.1 kPa	964.9
403.49 K, 1273.1 kPa	87.8
403.5 K, 9039.9 kPa	1120
403.51 K, 2538.6 kPa	1038.4
413.48 K, 1705.4 kPa	964.4
413.49 K, 1667.6 kPa	884.8
413.5 K, 1339.2 kPa	87.8
413.51 K, 5100.3 kPa	1037.9
423.48 K, 3720.9 kPa	964
423.49 K, 2049.1 kPa	884.4
423.5 K, 1403.2 kPa	87.7
423.51 K, 7690 kPa	1037.4
433.47 K, 2440.9 kPa	790.6
433.49 K, 1466 kPa	87.7
433.49 K, 3342.9 kPa	883.9
433.49 K, 5765 kPa	963.5
433.5 K, 2159.2 kPa	167.2
443.48 K, 2727.2 kPa	261.3
443.48 K, 3403.1 kPa	790.2
443.49 K, 2855.8 kPa	451.8
443.49 K, 2856.2 kPa	410.2
443.49 K, 2906.1 kPa	659.8
443.49 K, 4930.5 kPa	883.5
443.5 K, 1526.7 kPa	87.6
443.5 K, 2301.4 kPa	167.1
443.5 K, 2856.5 kPa	556.1
443.5 K, 2857 kPa	496.8
443.5 K, 3041.4 kPa	734.7
443.5 K, 7837.5 kPa	963.1
443.51 K, 2855.3 kPa	532.1
443.51 K, 2860.2 kPa	589.2
444.48 K, 2904 kPa	410.2
444.48 K, 2905.8 kPa	451.8
444.49 K, 2907.9 kPa	496.8
444.49 K, 2909.6 kPa	556.1
